Results: ChEMBL document CHEMBL1201862, “PubChem BioAssay data set” (2004)
Active and inactive are the calls of the source.

Columns and labels:
[1] = molecular target: Procathepsin L (Homo sapiens, UniProt P07711)
[2] = molecular target: T1, Aspartyl aminopeptidase (Plasmodium falciparum 3D7, UniProt Q8I2J3)
T1 sequence (Q8I2J3 whole entry): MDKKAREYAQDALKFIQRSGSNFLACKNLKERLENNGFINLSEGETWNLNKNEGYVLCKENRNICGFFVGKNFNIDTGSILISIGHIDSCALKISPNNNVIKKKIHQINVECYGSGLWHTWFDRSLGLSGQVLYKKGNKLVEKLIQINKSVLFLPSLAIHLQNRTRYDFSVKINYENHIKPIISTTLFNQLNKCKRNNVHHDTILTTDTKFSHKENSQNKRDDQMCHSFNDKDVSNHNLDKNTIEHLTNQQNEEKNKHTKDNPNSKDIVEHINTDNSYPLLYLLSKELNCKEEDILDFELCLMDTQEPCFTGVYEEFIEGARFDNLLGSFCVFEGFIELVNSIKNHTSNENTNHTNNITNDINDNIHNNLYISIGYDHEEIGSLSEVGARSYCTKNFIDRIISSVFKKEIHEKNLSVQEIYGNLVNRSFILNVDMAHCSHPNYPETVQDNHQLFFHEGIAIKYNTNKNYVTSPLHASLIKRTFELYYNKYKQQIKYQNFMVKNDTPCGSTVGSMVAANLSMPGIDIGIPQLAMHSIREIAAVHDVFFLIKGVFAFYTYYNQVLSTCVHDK

[3] = molecular target: T2, Mannose-6-phosphate isomerase (Homo sapiens, UniProt P34949); assay: inhibitors of human PMI, primary screen, biochemical, fluorescence intensity, coupled assay (AID 1209)
T2 sequence (P34949 whole entry): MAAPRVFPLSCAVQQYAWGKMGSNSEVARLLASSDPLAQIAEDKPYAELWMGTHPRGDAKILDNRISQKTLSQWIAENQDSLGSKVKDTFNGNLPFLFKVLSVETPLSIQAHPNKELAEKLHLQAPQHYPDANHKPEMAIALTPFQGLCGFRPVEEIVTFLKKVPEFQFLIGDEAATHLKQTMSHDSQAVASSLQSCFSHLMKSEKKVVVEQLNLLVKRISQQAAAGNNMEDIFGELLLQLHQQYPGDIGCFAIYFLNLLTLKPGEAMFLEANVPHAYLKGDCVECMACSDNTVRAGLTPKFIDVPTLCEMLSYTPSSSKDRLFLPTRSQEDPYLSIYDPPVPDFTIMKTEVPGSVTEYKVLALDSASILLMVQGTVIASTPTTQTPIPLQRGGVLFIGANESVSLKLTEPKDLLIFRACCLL

[4] = tested on: HT-1080; assay: cytotoxicity in HT1080 fibrosarcoma cells, cell-based, fluorescence readout (AID 620); type: functional; details: Homo sapiens
[5] = molecular target: T3, Oxysterols receptor LXR-beta (Homo sapiens, UniProt P55055); type: functional, cell-based;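 further: Cell-based luminescence dose-response assay of agonist activity at LXR, run as a confirmatory counterscreen to a daf-12 agonist screen; HEK293 cells with Gal4-LXR fusion and GAL4-driven luciferase reporter; agonist potency from rising luciferase signal of a Gal4-LXR reporter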
T3 sequence (P55055 whole entry): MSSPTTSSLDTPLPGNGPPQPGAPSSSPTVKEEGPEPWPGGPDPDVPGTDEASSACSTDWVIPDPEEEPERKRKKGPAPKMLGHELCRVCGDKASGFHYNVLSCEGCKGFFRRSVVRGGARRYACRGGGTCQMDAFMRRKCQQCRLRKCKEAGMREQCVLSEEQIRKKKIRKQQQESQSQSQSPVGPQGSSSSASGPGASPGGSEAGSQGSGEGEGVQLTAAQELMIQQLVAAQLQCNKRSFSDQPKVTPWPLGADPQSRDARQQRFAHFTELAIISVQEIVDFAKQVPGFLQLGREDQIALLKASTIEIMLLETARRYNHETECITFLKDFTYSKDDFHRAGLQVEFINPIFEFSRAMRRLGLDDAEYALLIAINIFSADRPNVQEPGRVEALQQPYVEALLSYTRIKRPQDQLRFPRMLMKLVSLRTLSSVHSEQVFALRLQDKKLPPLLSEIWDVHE

[6] = cells
[7] = molecular target: Luciferin 4-monooxygenase (Photinus pyralis, UniProt P08659); assay: Counter Screen for Luciferase-based Assay Positives. [Related pubchem assays: 620, 618, 411 ]
[8] = (§1) Counterscreen for antagonists of the orexin 1 receptor (OX1R; HCRTR1): Fluorescence-based cell-based high throughput dose response assay to identify antagonists of the parental CHO cell line. [Related pubchem assays (depositor defined):AID434989, AID435008, AID463079, AID485270, AID492963, AID492964, AID492965, AID493232, AID504699, AID504701]; type: functional
[9] = molecular target: T4, Orexin/Hypocretin receptor type 1 (Homo sapiens, UniProt O43613); assay: Homogeneous Time Resolved Fluorescence (HTRF)-based cell-based high throughput dose response assay for antagonists of the orexin 1 receptor (OX1R; HCRTR1). [Related pubchem assays (depositor defined):AID434989, AID435008, AID463079, AID485270, AID492963, AID492964, AID492965, AID493232, AID504717, AID504718]; type: functional
T4 sequence (O43613 whole entry): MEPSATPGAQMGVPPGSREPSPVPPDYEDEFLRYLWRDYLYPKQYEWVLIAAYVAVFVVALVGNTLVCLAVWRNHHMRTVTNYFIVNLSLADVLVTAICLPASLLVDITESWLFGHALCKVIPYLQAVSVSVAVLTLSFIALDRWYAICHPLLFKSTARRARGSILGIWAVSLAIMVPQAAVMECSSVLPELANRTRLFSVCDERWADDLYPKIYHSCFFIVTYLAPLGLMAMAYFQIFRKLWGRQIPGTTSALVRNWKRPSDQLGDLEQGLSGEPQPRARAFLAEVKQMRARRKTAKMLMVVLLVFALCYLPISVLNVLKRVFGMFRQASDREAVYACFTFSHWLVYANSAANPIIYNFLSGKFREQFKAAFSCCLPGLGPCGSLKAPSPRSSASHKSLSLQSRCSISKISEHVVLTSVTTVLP

[10] = tested on: CHO-K1; assay: as §1, with “Homogeneous time resolved fluorescence (HTRF)-based” for “Fluorescence-based”, “cell-based” for “cell-based high throughput”, “CHO-K1” for “CHO”; type: functional; details: Cricetulus griseus;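 further: potency for inhibition of ATP-stimulated IP1 production as antagonists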
[11] = molecular target: T5, Orexin receptor type 2 (Homo sapiens, UniProt O43614); assay: Counterscreen assay for antagonists of the orexin 1 receptor (OX1R; HCRTR1): Fluorescence-based cell-based dose response assay for antagonists of the orexin 2 receptor (OX2R; HCRTR2), run by assay provider.; type: functional
T5 sequence (O43614 whole entry): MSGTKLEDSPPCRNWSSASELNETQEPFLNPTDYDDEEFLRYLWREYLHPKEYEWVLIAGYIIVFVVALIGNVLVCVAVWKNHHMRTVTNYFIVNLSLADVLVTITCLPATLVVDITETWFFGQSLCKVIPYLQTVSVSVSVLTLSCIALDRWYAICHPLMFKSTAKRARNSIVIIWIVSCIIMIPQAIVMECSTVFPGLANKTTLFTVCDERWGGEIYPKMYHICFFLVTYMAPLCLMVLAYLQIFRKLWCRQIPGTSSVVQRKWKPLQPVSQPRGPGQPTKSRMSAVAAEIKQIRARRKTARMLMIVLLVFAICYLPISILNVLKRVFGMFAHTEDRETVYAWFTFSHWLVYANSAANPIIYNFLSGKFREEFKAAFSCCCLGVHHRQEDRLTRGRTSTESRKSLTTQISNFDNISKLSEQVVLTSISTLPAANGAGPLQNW

[12] = molecular target: T5, Orexin receptor type 2; assay: Counterscreen assay for antagonists of the orexin 1 receptor (OX1R; HCRTR1): Homogeneous Time Resolved Fluorescence (HTRF)-based cell-based dose response assay for antagonists of the orexin 2 receptor (OX2R; HCRTR2), run by assay provider.; type: functional
[13] = molecular target: T4, Orexin/Hypocretin receptor type 1; assay: Fluorescence-based cell-based high throughput dose response assay for antagonists of the orexin 1 receptor (OX1R; HCRTR1). [Related pubchem assays (depositor defined):AID434989, AID435008, AID463079, AID485270, AID492963, AID492964, AID492965, AID493232, AID504717, AID504718]; type: functional
[14] = molecular target: Photoreceptor-specific nuclear receptor (Homo sapiens, UniProt Q9Y5X4); assay: NR2E3 inverse agonists, dose response, biochemical, TR-FRET (AID 463256); type: functional
[15] = molecular target: Peroxisome proliferator-activated receptor gamma/Nuclear receptor corepressor 2 (Homo sapiens, UniProt P37231+Q9Y618); assay: Counterscreen for NR2E3 inverse agonists: TR-FRET-based biochemical high throughput dose response assay to identify inverse agonists of the interaction between peroxisome proliferator-activated receptor gamma (PPARg) and nuclear receptor co-repressor 2 (NCOR2).; type: functional
[16] = tested on: BJ; assay: cytotoxicity toward BJ-TERT fibroblasts, dose response, cell-based, RAS-independent, luminescence (AID 1933); type: functional; details: Homo sapiens
[17] = inhibitors of SNCA 5'UTR-driven reporter translation, confirmation, H4 neuroglioma cells, luminescence (AID 1988); type: functional, cell-based
[18] = luciferase reporter signal reduction – luminescence, H4-C neuroglioblastoma cells, dose response (AID 2458); type: functional, cell-based;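 further: H4 neuroglioblastoma cells stably carrying a luciferase reporter gene fusion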
[19] = tested on: BJ; assay: cells; type: functional, cell-based; details: Homo sapiens
[20] = tested on: BJ; assay: cytotoxicity toward BJ-TERT-LT-ST fibroblasts, dose response, cell-based, RAS-independent, luminescence (AID 1935); type: functional; details: Homo sapiens;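 further: BJ fibroblasts immortalized with TERT plus LT and ST oncogenes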
[21] = cells; type: functional, cell-based
[22] = cytotoxicity toward DRD oncogenic fibroblasts, dose response, cell-based, non-viral oncogenic, luminescence (AID 1934); type: functional; details: Homo sapiens
[23] = inhibitors of SNCA 5'UTR-driven translation, confirmation, luminescence, H4 neuroglioblastoma cells, dose confirmation (AID 2454); type: functional, cell-based;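 further: H4 neuroglioblastoma cells carrying an alpha-synuclein 5'UTR luciferase reporter; potency for inhibition of the luciferase signal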
[24] = Luminescence Cell-Based Dose Retest to Confirm Inhibitors of Cancer Stem Cells. [Related pubchem assays (depositor defined):AID2717, AID2721]; type: functional; details: Homo sapiens
[25] = molecular target: T2, Mannose-6-phosphate isomerase; assay: human PMI inhibitors, high substrate, primary screen, biochemical, fluorescence intensity, high mannose 6-phosphate (AID 1220)
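Wherever AC50 is given: cells exposed to compound for roughly 70 hours or longer before luminescence read.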

Sequence of Peroxisome proliferator-activated receptor gamma/Nuclear receptor corepressor 2 (P37231 whole entry): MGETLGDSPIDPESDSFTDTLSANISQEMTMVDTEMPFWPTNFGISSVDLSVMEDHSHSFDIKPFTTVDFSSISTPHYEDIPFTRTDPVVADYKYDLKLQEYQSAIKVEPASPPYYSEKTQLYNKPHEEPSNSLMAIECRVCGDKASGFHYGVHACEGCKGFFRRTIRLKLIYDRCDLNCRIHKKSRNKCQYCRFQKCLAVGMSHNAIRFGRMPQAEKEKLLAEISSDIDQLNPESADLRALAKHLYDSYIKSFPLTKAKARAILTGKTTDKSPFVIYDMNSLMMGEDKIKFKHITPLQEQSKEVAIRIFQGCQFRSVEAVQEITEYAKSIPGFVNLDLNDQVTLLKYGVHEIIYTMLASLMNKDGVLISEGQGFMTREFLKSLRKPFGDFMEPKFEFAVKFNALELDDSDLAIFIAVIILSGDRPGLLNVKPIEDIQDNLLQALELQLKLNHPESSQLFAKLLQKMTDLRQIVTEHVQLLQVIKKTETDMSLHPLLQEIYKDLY
Sequence of Peroxisome proliferator-activated receptor gamma/Nuclear receptor corepressor 2 (Q9Y618 whole entry): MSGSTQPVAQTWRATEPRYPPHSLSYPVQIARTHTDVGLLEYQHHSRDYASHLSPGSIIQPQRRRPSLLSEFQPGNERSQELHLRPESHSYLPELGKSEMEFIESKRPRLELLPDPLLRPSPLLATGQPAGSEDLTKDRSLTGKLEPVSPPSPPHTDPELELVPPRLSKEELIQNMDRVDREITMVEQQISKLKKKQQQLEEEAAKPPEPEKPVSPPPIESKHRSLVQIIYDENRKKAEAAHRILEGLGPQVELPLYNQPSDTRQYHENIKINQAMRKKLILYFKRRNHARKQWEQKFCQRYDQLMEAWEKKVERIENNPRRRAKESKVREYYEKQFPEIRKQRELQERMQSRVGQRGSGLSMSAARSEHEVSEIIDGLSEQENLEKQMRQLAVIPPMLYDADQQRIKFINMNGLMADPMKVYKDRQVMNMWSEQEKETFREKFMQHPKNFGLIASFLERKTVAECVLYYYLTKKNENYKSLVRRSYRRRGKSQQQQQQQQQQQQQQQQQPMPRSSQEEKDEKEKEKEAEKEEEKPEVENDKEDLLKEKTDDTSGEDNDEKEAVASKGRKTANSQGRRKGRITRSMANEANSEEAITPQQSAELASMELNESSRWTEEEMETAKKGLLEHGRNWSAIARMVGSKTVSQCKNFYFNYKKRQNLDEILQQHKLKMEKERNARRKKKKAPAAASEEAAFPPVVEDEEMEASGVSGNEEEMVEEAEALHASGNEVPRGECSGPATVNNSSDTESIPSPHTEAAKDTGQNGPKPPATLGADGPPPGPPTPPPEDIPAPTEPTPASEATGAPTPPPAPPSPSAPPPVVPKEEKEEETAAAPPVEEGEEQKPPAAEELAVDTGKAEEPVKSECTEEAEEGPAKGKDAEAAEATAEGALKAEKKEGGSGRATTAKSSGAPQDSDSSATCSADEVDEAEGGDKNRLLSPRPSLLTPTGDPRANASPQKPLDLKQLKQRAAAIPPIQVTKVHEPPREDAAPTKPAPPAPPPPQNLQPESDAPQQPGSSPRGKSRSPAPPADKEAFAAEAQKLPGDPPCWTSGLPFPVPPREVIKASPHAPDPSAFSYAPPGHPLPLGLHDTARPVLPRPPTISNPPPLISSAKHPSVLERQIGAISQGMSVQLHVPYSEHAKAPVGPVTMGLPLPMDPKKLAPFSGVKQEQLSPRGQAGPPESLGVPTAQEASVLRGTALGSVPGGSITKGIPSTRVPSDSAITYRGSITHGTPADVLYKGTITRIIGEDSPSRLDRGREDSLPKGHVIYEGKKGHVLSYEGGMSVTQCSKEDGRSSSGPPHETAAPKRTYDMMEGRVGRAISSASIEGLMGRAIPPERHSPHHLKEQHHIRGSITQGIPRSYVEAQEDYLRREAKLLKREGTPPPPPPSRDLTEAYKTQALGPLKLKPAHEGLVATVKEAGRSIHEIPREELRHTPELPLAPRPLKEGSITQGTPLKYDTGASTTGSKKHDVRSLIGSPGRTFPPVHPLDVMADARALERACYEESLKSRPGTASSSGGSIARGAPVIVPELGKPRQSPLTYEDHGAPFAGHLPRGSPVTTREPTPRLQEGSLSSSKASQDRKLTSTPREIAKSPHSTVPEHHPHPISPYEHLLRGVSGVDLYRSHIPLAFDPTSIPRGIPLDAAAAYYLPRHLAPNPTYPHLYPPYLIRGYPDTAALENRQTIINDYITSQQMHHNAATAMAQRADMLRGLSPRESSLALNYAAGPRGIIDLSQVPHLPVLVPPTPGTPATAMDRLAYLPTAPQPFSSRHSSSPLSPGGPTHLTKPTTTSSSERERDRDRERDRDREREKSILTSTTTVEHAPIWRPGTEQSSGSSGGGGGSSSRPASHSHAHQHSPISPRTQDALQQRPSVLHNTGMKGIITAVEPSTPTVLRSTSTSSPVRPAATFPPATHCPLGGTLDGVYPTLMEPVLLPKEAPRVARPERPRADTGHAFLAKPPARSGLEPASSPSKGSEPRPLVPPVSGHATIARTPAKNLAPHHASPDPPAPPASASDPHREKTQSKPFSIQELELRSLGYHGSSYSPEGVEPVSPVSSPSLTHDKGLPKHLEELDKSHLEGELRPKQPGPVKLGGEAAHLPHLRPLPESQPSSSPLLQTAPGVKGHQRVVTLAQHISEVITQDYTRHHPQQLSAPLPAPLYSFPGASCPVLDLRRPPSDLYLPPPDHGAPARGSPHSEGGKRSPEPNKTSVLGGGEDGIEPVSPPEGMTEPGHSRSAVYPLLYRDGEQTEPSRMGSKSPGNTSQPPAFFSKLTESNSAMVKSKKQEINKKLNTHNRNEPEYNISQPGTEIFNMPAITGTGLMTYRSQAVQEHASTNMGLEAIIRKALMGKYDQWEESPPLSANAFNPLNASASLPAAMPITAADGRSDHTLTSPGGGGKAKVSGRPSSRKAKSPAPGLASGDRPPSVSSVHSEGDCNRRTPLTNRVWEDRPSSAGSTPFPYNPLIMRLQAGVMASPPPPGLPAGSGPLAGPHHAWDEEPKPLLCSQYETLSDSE
Sequence of Photoreceptor-specific nuclear receptor (Q9Y5X4 whole entry): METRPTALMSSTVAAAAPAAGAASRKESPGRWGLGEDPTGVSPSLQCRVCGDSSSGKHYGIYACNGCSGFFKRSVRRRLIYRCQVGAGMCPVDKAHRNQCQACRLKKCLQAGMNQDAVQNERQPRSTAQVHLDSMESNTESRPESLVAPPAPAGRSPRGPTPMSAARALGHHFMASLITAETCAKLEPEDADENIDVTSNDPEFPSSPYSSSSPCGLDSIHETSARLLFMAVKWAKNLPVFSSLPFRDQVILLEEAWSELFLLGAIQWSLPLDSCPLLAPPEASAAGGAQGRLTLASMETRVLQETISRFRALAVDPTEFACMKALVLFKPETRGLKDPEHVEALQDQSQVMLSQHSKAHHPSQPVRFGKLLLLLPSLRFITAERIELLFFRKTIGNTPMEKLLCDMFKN
Sequence of Luciferin 4-monooxygenase (P08659 whole entry): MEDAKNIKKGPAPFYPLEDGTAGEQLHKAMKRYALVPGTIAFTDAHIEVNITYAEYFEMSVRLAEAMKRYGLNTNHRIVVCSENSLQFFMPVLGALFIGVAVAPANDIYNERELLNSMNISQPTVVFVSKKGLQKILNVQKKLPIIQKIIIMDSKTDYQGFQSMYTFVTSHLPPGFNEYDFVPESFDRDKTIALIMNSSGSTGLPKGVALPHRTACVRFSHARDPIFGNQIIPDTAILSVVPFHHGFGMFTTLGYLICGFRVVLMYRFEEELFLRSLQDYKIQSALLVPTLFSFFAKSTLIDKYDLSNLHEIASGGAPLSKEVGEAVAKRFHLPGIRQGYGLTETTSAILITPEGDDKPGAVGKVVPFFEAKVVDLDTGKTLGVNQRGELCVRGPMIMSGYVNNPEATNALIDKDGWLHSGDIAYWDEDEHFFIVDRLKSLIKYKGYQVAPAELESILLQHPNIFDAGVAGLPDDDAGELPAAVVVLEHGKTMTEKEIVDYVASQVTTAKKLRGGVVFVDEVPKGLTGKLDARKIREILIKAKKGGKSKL
Sequence of Procathepsin L (P07711 whole entry): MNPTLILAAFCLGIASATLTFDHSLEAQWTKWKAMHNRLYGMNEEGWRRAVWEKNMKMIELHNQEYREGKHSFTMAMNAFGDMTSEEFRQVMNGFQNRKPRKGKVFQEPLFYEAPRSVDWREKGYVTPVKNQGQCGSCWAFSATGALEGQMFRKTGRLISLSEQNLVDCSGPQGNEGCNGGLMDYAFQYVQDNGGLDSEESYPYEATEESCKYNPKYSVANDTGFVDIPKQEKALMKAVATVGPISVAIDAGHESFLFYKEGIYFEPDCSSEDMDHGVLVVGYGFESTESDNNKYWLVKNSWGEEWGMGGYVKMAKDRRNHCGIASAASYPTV

## COc1cc([N+](=O)[O-])ccc1NC(=O)Nn1cnnc1
[1]
  IC50: > 59.6 µM (not active)
[2]
  IC50: 0.353 µM (active)

## O=C(NCCO)c1cc2ccccc2cc1O
[3]
  IC50: > 50 µM (not active)

## Cc1cc(C)c2c(N)c(C(=O)Nc3nccs3)sc2n1
[4]
  EC50: > 50 µM (not active)
[5]
  EC50: > 67.5 µM (inactive)
[6]
  EC50: > 67.5 µM (inactive)
[7]
  EC50: > 100 µM (not active)

## CCc1c(C)sc(N=C(S)Nc2nc(C)cc(C)n2)c1C(=O)OC
[8]
  IC50: > 49.8 µM (inactive)
[9]
  IC50: 2.23 µM (active)
[10]
  IC50: > 66.2 µM (inactive)
[11]
  IC50: 15 µM (inactive)
[12]
  IC50: > 50 µM (inactive)
[3]
  IC50: > 50 µM (not active)
[13]
  IC50: 4.29 µM (active)

## COc1cnn(-c2ccccc2)c(=O)c1SCc1ccc(Cl)c(Cl)c1
[14]
  IC50: 5 µM (active)
[15]
  IC50: 5.85 µM (active)

## COC(=O)c1ccc(C)c(NS(=O)(=O)c2ccc(OC)cc2)c1
[16]
  EC50: 0.689 µM (inconclusive)
[17]
  EC50: < 0.1 µM (active)
[18]
  EC50: > 12 µM (not active)
[19]
  EC50: 1.61 µM (active)
[20]
  EC50: 0.353 µM (inconclusive)
[21]
  EC50: 1.02 µM (active)
[22]
  EC50: 0.682 µM (active)
[23]
  EC50: 0.834 µM (active)

## CCOC(=O)N1CCN(CCC(=O)c2ccc(Cl)cc2)CC1
[24]
  AC50: 12 µM (active)
[25]
  IC50: > 50 µM (not active)

## C=CCn1c(C)cc(C(=O)CSc2ccc(NC(C)=O)cc2)c1C
[4]
  EC50: > 50 µM (not active)
[7]
  EC50: 0.77 µM (active)

## O=C(CSc1ccc(-c2cccs2)nn1)N1CCCCCC1
[14]
  IC50: 4.73 µM (active)
[15]
  IC50: > 39.8 µM (not active)

## CS(=O)(=O)N(CC(=O)N1CCC(C(N)=O)CC1)c1ccc(Oc2ccccc2)cc1
[14]
  IC50: 1.05 µM (active)
[15]
  IC50: 0.792 µM (active)
